≈ marks a conversion by molar mass, not a printed value. One block for each molecule: values may come before it.
Experiments:
Acinetobacter baumannii = test: Antibacterial activity against Acinetobacter baumannii NCTC 13420; type: functional
Klebsiella pneumoniae = test: Antibacterial activity against Klebsiella pneumoniae ATCC 700603; type: functional
Pseudomonas aeruginosa = test: Antibacterial activity against Pseudomonas aeruginosa ATCC 27853; type: functional
Staphylococcus aureus = test: Antibacterial activity against Staphylococcus aureus ATCC 29213; type: functional
Escherichia coli [1] = test: Antibacterial activity against Escherichia coli W4573; type: functional
Escherichia coli [2] = test: Antibacterial activity against Escherichia coli N43; type: functional
Escherichia coli [3] = test: Antibacterial activity against wild type Escherichia coli LM179; type: functional
Escherichia coli [4] = test: Antibacterial activity against Escherichia coli LM625 harboring GyrA S83L/D87N double mutant; type: functional
Escherichia coli [5] = test: Antibacterial activity against Escherichia coli LM367 harboring delta marR/delta acrR double mutant; type: functional
Escherichia coli [6] = test: Antibacterial activity against Escherichia coli LM693 harboring GyrA S83L/D87N double mutant/ParC S80I mutant; type: functional
Escherichia coli [7] = test: Antibacterial activity against Escherichia coli LM705 harboring GyrA S83L/D87N double mutant/ParC S80I mutant/delta marR/delta acrR double mutant; type: functional
Escherichia coli [8] = test: Antibacterial activity against Escherichia coli CH440 harboring GyrA S83L/D87N double mutant/ParC S80I E84V double mutant/aac(6')-lb-cr; type: functional
Escherichia coli [9] = test: Antibacterial activity against Escherichia coli CH460 harboring GyrA S83L/D87N double mutant/ParC S80I E84V double mutant/qepA; type: functional
Escherichia coli [10] = test: Antibacterial activity against Escherichia coli CH418 harboring GyrA S83L/D87N double mutant/ParC S80I E84G double mutant/qnrA; type: functional
Escherichia coli [11] = test: Antibacterial activity against Escherichia coli CH448 harboring GyrA S83L mutant/qnrS; type: functional
Escherichia coli [12] = test: Selectivity ratio of MIC for Escherichia coli LM625 harboring GyrA S83L/D87N double mutant to MIC for wild type Escherichia coli LM179; type: functional
Escherichia coli [13] = test: Selectivity ratio of MIC for Escherichia coli LM367 harboring delta marR/delta acrR double mutant to MIC for wild type Escherichia coli LM179; type: functional
Escherichia coli [14] = test: Selectivity ratio of MIC for Escherichia coli LM693 harboring GyrA S83L/D87N double mutant/ParC S80I mutant to MIC for wild type Escherichia coli LM179; type: functional
Escherichia coli [15] = test: Selectivity ratio of MIC for Escherichia coli LM705 harboring GyrA S83L/D87N double mutant/ParC S80I mutant/delta marR/delta acrR double mutant to MIC for wild type Escherichia coli LM179; type: functional
Escherichia coli [16] = test: Selectivity ratio of MIC for Escherichia coli CH440 harboring GyrA S83L/D87N double mutant/ParC S80I E84V double mutant/aac(6')-lb-cr to MIC for wild type Escherichia coli LM179; type: functional
Escherichia coli [17] = test: Selectivity ratio of MIC for Escherichia coli CH460 harboring GyrA S83L/D87N double mutant/ParC S80I E84V double mutant/qepA to MIC for wild type Escherichia coli LM179; type: functional
Escherichia coli [18] = test: Selectivity ratio of MIC for Escherichia coli CH418 harboring GyrA S83L/D87N double mutant/ParC S80I E84G double mutant/qnrA to MIC for wild type Escherichia coli LM179; type: functional
Escherichia coli [19] = test: Selectivity ratio of MIC for Escherichia coli CH448 harboring GyrA S83L mutant/qnrS to MIC for wild type Escherichia coli LM179; type: functional
HepG2 = test: Cytotoxicity against human HepG2 cells after 24 hrs by cell titre-glo assay; type: cell-based; conditions: HepG2, 24 h
[20] = n-octanol/phosphate buffer partition coefficient, log D of compound at pH 7.4 by shake-flask assay; type: physicochemical
hERG (KCNH2) = hERG (KCNH2) (Homo sapiens, UniProt Q12809); test: Inhibition of human ERG channel at 100 uM by automated patch clamp assay
[21] = molecular target: Voltage-gated inwardly rectifying potassium channel KCNH2 (Homo sapiens, UniProt Q12809); test: Inhibition of human ERG channel by automated patch clamp assay
Chain of Voltage-gated inwardly rectifying potassium channel KCNH2 (Q12809 whole entry): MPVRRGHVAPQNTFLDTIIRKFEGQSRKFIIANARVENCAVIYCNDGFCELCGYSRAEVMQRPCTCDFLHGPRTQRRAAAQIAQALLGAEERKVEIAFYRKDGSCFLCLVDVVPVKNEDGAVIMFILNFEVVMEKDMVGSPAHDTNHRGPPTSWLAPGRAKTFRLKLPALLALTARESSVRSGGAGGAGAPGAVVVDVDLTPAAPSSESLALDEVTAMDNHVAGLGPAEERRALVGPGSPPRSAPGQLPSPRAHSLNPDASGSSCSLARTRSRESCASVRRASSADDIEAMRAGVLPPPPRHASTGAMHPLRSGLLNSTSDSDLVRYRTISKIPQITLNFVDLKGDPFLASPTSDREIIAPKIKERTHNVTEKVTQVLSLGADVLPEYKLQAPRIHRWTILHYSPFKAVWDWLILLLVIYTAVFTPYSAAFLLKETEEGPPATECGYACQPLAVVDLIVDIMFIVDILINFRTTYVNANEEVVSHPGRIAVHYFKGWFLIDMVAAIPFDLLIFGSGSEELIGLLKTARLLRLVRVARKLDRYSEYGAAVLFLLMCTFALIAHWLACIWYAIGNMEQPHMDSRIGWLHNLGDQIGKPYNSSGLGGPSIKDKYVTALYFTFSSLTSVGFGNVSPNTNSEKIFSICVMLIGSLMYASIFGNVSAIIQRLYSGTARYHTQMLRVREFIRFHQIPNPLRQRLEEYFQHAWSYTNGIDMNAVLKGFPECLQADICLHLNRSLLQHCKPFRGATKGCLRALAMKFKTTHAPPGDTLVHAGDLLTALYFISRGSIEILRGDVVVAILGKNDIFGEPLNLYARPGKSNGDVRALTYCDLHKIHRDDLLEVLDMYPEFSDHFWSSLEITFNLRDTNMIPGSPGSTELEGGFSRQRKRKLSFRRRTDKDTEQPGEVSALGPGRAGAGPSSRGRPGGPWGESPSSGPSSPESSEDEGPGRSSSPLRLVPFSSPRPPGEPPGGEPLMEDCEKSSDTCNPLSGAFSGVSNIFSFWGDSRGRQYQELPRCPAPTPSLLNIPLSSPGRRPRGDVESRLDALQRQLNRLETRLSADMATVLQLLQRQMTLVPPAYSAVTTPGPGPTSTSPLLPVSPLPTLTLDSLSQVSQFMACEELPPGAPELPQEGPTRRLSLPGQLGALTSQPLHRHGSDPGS

Chain of hERG (KCNH2) (Q12809 whole entry): as above

Structure (SMILES): CCc1c(-c2ccc(N3CCNCC3)cc2)[nH]c(=O)c2c(=O)[nH]sc12
MIC (Acinetobacter baumannii): > 64 µg/mL
MIC (Klebsiella pneumoniae): 64 µg/mL (≈ 180 µM)
MIC (Pseudomonas aeruginosa): 16 µg/mL (≈ 44.9 µM)
MIC (Staphylococcus aureus): 8 µg/mL (≈ 22.4 µM)
MIC (Escherichia coli [1]): 4 µg/mL (≈ 11.2 µM)
MIC (Escherichia coli [2]): 0.5 µg/mL (≈ 1.4 µM)

Structure (SMILES): CCc1c(-c2ccc(N3CCC(CNC)C3)cc2)[nH]c(=O)c2c(=O)[nH]sc12 (configuration not stated)
MIC (Acinetobacter baumannii): > 128 µg/mL
MIC (Klebsiella pneumoniae): 32 µg/mL (≈ 83.2 µM)
MIC (Pseudomonas aeruginosa): 2 µg/mL (≈ 5.2 µM)
MIC (Staphylococcus aureus): 2 µg/mL (≈ 5.2 µM)
MIC (Escherichia coli [1]): 1 µg/mL (≈ 2.6 µM)
MIC (Escherichia coli [2]): 0.008 µg/mL (≈ 0.0208 µM)

Structure (SMILES): CCc1c(-c2ccc(N3C[C@@H]4CCCN(C)[C@@H]4C3)cc2)[nH]c(=O)c2c(=O)[nH]sc12
MIC (Escherichia coli [3]): 4 µg/mL (≈ 9.74 µM)
MIC (Escherichia coli [4]): 16 µg/mL (≈ 39 µM)
MIC (Acinetobacter baumannii): 64 µg/mL (≈ 156 µM)
MIC (Klebsiella pneumoniae): 64 µg/mL (≈ 156 µM)
MIC (Pseudomonas aeruginosa): 32 µg/mL (≈ 77.9 µM)
MIC (Staphylococcus aureus): 4 µg/mL (≈ 9.74 µM)
MIC (Escherichia coli [1]): 4 µg/mL (≈ 9.74 µM)
MIC (Escherichia coli [2]): 1 µg/mL (≈ 2.44 µM)
MIC (Escherichia coli [5]): 16 µg/mL (≈ 39 µM)
MIC (Escherichia coli [6]): > 64 µg/mL
MIC (Escherichia coli [7]): > 64 µg/mL
MIC (Escherichia coli [8]): > 64 µg/mL
MIC (Escherichia coli [9]): 64 µg/mL (≈ 156 µM)
MIC (Escherichia coli [10]): 64 µg/mL (≈ 156 µM)
MIC (Escherichia coli [11]): 32 µg/mL (≈ 77.9 µM)
Selectivity ratio (Escherichia coli [12]): 4
Selectivity ratio (Escherichia coli [13]): 4
Selectivity ratio (Escherichia coli [14]): >16
Selectivity ratio (Escherichia coli [15]): >16
Selectivity ratio (Escherichia coli [16]): >16
Selectivity ratio (Escherichia coli [17]): 16
Selectivity ratio (Escherichia coli [18]): 16
Selectivity ratio (Escherichia coli [19]): 8

Structure (SMILES): CCc1c(-c2ccc(N3CCC(N(C)C)C3)cc2)[nH]c(=O)c2c(=O)[nH]sc12 (racemic)
MIC (Escherichia coli [3]): 0.5 µg/mL (≈ 1.3 µM)
MIC (Escherichia coli [4]): 4 µg/mL (≈ 10.4 µM)
MIC (Acinetobacter baumannii): 2 µg/mL (≈ 5.2 µM)
MIC (Klebsiella pneumoniae): 4 µg/mL (≈ 10.4 µM)
MIC (Pseudomonas aeruginosa): 1 µg/mL (≈ 2.6 µM)
MIC (Staphylococcus aureus): 1 µg/mL (≈ 2.6 µM)
MIC (Escherichia coli [1]): 0.25 µg/mL (≈ 0.65 µM)
MIC (Escherichia coli [2]): 0.03 µg/mL (≈ 0.078 µM)
IC50 (HepG2): > 128 µg/mL
logD [20]: 1.4
inhibition at 100 µM (hERG (KCNH2)): 84%
IC50 [21]: 20 µM
MIC (Escherichia coli [5]): 2 µg/mL (≈ 5.2 µM)
MIC (Escherichia coli [6]): 8 µg/mL (≈ 20.8 µM)
MIC (Escherichia coli [7]): 64 µg/mL (≈ 166 µM)
MIC (Escherichia coli [8]): 16 µg/mL (≈ 41.6 µM)
MIC (Escherichia coli [9]): 16 µg/mL (≈ 41.6 µM)
MIC (Escherichia coli [10]): 16 µg/mL (≈ 41.6 µM)
MIC (Escherichia coli [11]): 16 µg/mL (≈ 41.6 µM)
Selectivity ratio (Escherichia coli [12]): 8
Selectivity ratio (Escherichia coli [13]): 4
Selectivity ratio (Escherichia coli [14]): 16
Selectivity ratio (Escherichia coli [15]): 128
Selectivity ratio (Escherichia coli [16]): 32
Selectivity ratio (Escherichia coli [17]): 32
Selectivity ratio (Escherichia coli [18]): 32
Selectivity ratio (Escherichia coli [19]): 32

Structure (SMILES): CCc1c(-c2ccc(N3CCC(NC)CC3)cc2)[nH]c(=O)c2c(=O)[nH]sc12
MIC (Acinetobacter baumannii): > 64 µg/mL
MIC (Klebsiella pneumoniae): > 64 µg/mL
MIC (Pseudomonas aeruginosa): 64 µg/mL (≈ 166 µM)
MIC (Staphylococcus aureus): 16 µg/mL (≈ 41.6 µM)
MIC (Escherichia coli [1]): 32 µg/mL (≈ 83.2 µM)
MIC (Escherichia coli [2]): 1 µg/mL (≈ 2.6 µM)

Structure (SMILES): CCc1c(-c2cccc(N3CCC(NC)C3)c2)[nH]c(=O)c2c(=O)[nH]sc12 (configuration not stated)
MIC (Acinetobacter baumannii): > 128 µg/mL
MIC (Klebsiella pneumoniae): > 128 µg/mL
MIC (Pseudomonas aeruginosa): > 128 µg/mL
MIC (Staphylococcus aureus): 32 µg/mL (≈ 86.4 µM)

More lines, now with the values ahead:

MIC (Acinetobacter baumannii): 8 µg/mL (≈ 20.2 µM)
MIC (Klebsiella pneumoniae): 8 µg/mL (≈ 20.2 µM)
MIC (Pseudomonas aeruginosa): 8 µg/mL (≈ 20.2 µM)
MIC (Staphylococcus aureus): 4 µg/mL (≈ 10.1 µM)
MIC (Escherichia coli [1]): 0.5 µg/mL (≈ 1.26 µM)
MIC (Escherichia coli [2]): 0.06 µg/mL (≈ 0.151 µM)
Structure (SMILES): CCc1c(-c2ccc(N3C[C@@H]4CCN(C)[C@@H]4C3)cc2)[nH]c(=O)c2c(=O)[nH]sc12

MIC (Acinetobacter baumannii): 64 µg/mL (≈ 166 µM)
MIC (Klebsiella pneumoniae): > 128 µg/mL
MIC (Pseudomonas aeruginosa): > 128 µg/mL
MIC (Staphylococcus aureus): 32 µg/mL (≈ 83.2 µM)
MIC (Escherichia coli [1]): > 64 µg/mL
MIC (Escherichia coli [2]): 8 µg/mL (≈ 20.8 µM)
Structure (SMILES): CCc1c(-c2cccc(N3CCC(N(C)C)C3)c2)[nH]c(=O)c2c(=O)[nH]sc12 (configuration not stated)

MIC (Acinetobacter baumannii): 16 µg/mL (≈ 44.8 µM)
MIC (Klebsiella pneumoniae): 2 µg/mL (≈ 5.6 µM)
MIC (Pseudomonas aeruginosa): 1 µg/mL (≈ 2.8 µM)
MIC (Staphylococcus aureus): 0.015 µg/mL (≈ 0.042 µM)
MIC (Escherichia coli [1]): 0.12 µg/mL (≈ 0.336 µM)
MIC (Escherichia coli [2]): 0.008 µg/mL (≈ 0.0224 µM)
Structure (SMILES): CCc1c(-c2ccc(N3CC[C@@H](O)C3)cc2)[nH]c(=O)c2c(=O)[nH]sc12

MIC (Acinetobacter baumannii): 64 µg/mL (≈ 180 µM)
MIC (Klebsiella pneumoniae): 4 µg/mL (≈ 11.2 µM)
MIC (Pseudomonas aeruginosa): 0.06 µg/mL (≈ 0.168 µM)
MIC (Staphylococcus aureus): 0.12 µg/mL (≈ 0.337 µM)
MIC (Escherichia coli [1]): 0.002 µg/mL (≈ 0.00561 µM)
MIC (Escherichia coli [2]): ≤ 0.0001 µg/mL
Structure (SMILES): CCc1c(-c2ccc(N3CCC(N)C3)cc2)[nH]c(=O)c2c(=O)[nH]sc12 (configuration not stated)

MIC (Acinetobacter baumannii): 4 µg/mL (≈ 10.4 µM)
MIC (Klebsiella pneumoniae): 8 µg/mL (≈ 20.8 µM)
MIC (Pseudomonas aeruginosa): 1 µg/mL (≈ 2.6 µM)
MIC (Staphylococcus aureus): 2 µg/mL (≈ 5.2 µM)
MIC (Escherichia coli [1]): 0.5 µg/mL (≈ 1.3 µM)
MIC (Escherichia coli [2]): 0.03 µg/mL (≈ 0.078 µM)
Structure (SMILES): CCc1c(-c2ccc(N3CC[C@@H](N(C)C)C3)cc2)[nH]c(=O)c2c(=O)[nH]sc12
